Laboratory results reported in ChEMBL document CHEMBL5653615 (J Biol Chem, 2013).

Columns and labels:
[1] = molecular target: Mitogen-activated protein kinase kinase kinase 10 (Homo sapiens) (UniProt Q02779); assay: Inhibition of human MAP3K10 at 18.6 nM by HotSpot assay relative to control
[2] = molecular target: T1, Serine/threonine-protein kinase NLK (Homo sapiens) (UniProt Q9UBE8); assay: Inhibition of human NLK at 18.6 nM by HotSpot assay relative to control
T1 sequence (whole entry): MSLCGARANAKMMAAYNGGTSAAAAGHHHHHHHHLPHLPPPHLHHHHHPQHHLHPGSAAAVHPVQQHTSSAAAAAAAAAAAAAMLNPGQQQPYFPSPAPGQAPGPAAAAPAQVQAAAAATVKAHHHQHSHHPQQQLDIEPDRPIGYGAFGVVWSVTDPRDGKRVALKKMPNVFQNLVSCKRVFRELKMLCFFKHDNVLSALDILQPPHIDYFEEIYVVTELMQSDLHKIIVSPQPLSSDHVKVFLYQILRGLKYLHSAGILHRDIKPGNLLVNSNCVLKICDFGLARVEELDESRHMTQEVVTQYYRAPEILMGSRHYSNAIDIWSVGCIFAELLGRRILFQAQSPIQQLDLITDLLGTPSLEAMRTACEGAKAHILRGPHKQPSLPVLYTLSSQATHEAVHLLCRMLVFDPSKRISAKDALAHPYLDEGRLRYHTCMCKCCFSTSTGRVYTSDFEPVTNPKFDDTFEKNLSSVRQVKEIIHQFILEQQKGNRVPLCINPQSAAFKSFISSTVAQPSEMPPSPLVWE

[3] = molecular target: T2, Serine/threonine-protein kinase VRK1 (Homo sapiens) (UniProt Q99986); assay: Inhibition of human VRK1 at 18.6 nM by HotSpot assay relative to control
T2 sequence (whole entry): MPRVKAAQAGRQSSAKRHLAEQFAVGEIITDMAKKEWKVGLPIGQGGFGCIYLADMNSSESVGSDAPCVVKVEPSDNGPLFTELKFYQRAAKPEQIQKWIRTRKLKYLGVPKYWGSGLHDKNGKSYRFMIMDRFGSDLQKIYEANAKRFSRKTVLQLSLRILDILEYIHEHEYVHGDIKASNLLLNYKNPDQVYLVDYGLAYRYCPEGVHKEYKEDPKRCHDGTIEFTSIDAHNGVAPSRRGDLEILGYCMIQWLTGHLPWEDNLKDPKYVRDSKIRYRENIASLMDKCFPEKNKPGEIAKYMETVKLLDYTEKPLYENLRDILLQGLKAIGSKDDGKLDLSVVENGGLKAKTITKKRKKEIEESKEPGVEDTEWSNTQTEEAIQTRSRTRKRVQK

[4] = molecular target: T3, Protein kinase C epsilon type (Homo sapiens) (UniProt Q02156); assay: Inhibition of human PKCepsilon at 1.82 nM by HotSpot assay relative to control
T3 sequence (whole entry): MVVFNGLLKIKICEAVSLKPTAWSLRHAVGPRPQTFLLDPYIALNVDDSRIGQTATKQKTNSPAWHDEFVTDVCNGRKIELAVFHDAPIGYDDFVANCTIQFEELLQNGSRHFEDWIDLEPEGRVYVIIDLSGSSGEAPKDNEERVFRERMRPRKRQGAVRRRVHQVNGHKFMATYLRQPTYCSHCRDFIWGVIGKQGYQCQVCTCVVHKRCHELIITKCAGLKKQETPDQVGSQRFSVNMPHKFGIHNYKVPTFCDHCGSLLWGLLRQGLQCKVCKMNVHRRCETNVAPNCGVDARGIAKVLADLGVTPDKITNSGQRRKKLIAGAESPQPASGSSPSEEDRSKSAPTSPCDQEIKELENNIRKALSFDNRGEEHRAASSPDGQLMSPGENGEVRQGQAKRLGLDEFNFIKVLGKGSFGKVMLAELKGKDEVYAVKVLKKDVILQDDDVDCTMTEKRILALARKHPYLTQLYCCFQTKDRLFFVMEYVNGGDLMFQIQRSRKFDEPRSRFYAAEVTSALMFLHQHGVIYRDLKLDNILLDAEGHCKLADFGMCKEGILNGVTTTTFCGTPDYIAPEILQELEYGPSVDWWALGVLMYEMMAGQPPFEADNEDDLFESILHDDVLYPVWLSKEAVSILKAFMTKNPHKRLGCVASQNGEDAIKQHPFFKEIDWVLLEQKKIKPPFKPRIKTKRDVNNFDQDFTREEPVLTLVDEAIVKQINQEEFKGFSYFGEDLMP

[5] = molecular target: T4, Inhibitor of nuclear factor kappa-B kinase subunit beta (Homo sapiens) (UniProt O14920); conditions: dose 1.82 nM
T4 sequence (whole entry): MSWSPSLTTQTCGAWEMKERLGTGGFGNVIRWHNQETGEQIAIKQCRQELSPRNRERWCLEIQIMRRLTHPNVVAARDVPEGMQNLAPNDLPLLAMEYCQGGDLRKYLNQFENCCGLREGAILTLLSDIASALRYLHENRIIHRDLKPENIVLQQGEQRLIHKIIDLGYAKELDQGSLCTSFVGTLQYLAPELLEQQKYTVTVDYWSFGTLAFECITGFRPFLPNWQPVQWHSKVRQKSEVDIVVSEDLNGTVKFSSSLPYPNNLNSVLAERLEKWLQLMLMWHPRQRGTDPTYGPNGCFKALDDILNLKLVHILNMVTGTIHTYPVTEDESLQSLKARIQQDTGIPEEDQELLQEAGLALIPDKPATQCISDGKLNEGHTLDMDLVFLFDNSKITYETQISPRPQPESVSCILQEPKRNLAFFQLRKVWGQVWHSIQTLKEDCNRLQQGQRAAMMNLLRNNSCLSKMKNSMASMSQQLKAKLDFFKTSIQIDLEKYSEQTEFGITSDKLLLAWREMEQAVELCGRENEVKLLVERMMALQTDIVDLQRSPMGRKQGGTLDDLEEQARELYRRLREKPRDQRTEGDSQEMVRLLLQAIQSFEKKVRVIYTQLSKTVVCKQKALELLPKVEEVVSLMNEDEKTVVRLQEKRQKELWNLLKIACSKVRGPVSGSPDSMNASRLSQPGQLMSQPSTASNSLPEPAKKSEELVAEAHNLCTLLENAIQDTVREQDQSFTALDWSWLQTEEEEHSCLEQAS
Description: Inhibition of human IKKb at 1.82 nM by HotSpot assay relative to control

Sequence of Mitogen-activated protein kinase kinase kinase 10 (Homo sapiens) (Q02779 whole entry, looked up): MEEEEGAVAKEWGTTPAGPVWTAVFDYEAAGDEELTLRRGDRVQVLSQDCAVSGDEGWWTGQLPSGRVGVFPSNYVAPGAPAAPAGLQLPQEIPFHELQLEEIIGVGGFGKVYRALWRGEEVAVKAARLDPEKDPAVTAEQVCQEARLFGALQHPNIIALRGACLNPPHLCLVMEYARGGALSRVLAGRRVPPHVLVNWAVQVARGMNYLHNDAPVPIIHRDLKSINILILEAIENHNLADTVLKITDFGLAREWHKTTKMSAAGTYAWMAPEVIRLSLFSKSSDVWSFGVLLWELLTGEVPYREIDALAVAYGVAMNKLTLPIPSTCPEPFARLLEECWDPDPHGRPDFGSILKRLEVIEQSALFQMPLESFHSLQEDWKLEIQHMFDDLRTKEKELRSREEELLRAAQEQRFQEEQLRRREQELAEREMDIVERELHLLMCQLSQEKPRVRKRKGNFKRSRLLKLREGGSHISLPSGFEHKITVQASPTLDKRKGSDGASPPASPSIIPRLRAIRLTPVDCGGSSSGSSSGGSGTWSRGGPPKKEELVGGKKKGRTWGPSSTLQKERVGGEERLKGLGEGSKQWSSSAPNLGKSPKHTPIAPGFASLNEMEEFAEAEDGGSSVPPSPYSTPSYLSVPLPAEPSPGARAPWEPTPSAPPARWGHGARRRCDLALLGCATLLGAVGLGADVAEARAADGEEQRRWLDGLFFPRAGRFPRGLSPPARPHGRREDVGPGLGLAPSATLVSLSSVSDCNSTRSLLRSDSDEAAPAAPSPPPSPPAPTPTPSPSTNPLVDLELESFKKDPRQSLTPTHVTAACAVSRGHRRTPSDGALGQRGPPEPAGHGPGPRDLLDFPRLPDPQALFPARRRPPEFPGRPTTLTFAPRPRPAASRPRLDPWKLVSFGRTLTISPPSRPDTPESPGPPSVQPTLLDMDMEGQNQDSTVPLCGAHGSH

| inhibition [1] [%] | inhibition [2] [%] | inhibition [3] [%] | inhibition [4] [%] | inhibition [5] [%] | Compound |
| --- | --- | --- | --- | --- | --- |
| -0.06 | -1.35 | -6.1 |  |  | C[C@]1(O)C[C@@H](c2nc(-c3ccc4ccc(-c5ccccc5)nc4c3)c3c(N)nccn32)C1 |
|  |  |  | -6.93 | -5.57 | C[C@@]1(C(=O)Nc2ccc(F)nc2)CCCN1c1nc(Nc2cc(C3CC3)n[nH]2)c2cccn2n1 |
